Laboratory results from patent US10640547B2, “Immunotherapy against melanoma and other cancers” (IMMATICS BIOTECHNOLOGIES GMBH, priority 2016, dated 2020).

What was measured:
HLA-A*02:01 = HLA-A*02:01 (Homo sapiens, UniProt P04439, D140Y/D185E/D98H/E176V/E277Q/G131W/G231S/I119V/I121R/I166T/I218V/L300P/L318F/N151K/N90K/P208A/P217A/Q86G/Q94H/R138H/R169H/T345S); assay: MHC binding assay (UV-ligand exchange, β2m ELISA); settings: MHC class I binding score; binding to HLA-A*02:01 ranged by peptide exchange yield (UV-ligand exchange, β2m ELISA)
Method in brief: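 UV-exchange pMHC monomers, 100-fold diluted → streptavidin capture 1 h 37 °C → HRP anti-β2m 2 ug/ml 1 h 37 °C → TMB, A450. Yield from HLA-A*02:01/MLA-001 monomer standard curve, 15-500 ng/ml. Only stably bound peptides keep β2m-containing complexes intact.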

CD8+ T cells = assay: In vitro immunogenicity: T-cell priming with artificial APCs loaded with peptide/MHC and anti-CD28, pMHC multimer readout; format: cell-based, human; settings: Table 10A; HLA class I peptides
From the text: In order to obtain information regarding the immunogenicity of the TUMAPs of the present invention, the inventors performed investigations using an in vitro T-cell priming assay based on repeated stimulations of CD8+ T cells with artificial antigen presenting cells (aAPCs) loaded with peptide/MHC complexes and anti-CD28 antibody.
In order to perform in vitro stimulations by artificial antigen presenting cells loaded with peptide-MHC complex (pMHC) and anti-CD28 antibody, the inventors first isolated CD8+ T cells from fresh HLA-A*02 leukapheresis products via positive selection using CD8 microbeads (Miltenyi Biotec, Bergisch-Gladbach, Germany) of healthy donors obtained from the University clinics Mannheim, Germany, after informed consent.
PBMCs and isolated CD8+ lymphocytes were incubated in T-cell medium (TCM) until use consisting of RPMI-Glutamax (Invitrogen, Karlsruhe, Germany) supplemented with 10% heat inactivated human AB serum (PAN-Biotech, Aidenbach, Germany), 100 U/ml Penicillin/100 μg/ml Streptomycin (Cambrex, Cologne, Germany), 1 mM sodium pyruvate (CC Pro, Oberdorla, Germany), 20 μg/ml Gentamycin (Cambrex). 2.5 ng/ml IL-7 (PromoCell, Heidelberg, Germany) and 10 U/ml IL-2 (Novartis Pharma, Nürnberg, Germany) were also added to the TCM at this step.
Generation of pMHC/anti-CD28 coated beads, T-cell stimulations and readout was performed in a highly defined in vitro system using four different pMHC molecules per stimulation condition and 8 different pMHC molecules per readout condition.
The purified co-stimulatory mouse IgG2a anti human CD28 Ab 9.3 (Jung et al., 1987) was chemically biotinylated using Sulfo-N-hydroxysuccinimidobiotin as recommended by the manufacturer (Perbio, Bonn, Germany). Beads used were 5.6 μm diameter streptavidin coated polystyrene particles (Bangs Laboratories, Illinois, USA).
800.000 beads/200 μl were coated in 96-well plates in the presence of 4×12.5 ng different biotin-pMHC, washed and 600 ng biotin anti-CD28 were added subsequently in a volume of 200 μl. Stimulations were initiated in 96-well plates by co-incubating 1×10^6 CD8+ T cells with 2×10^5 washed coated beads in 200 μl TCM supplemented with 5 ng/ml IL-12 (PromoCell) for 3 days at 37° C. Half of the medium was then exchanged by fresh TCM supplemented with 80 U/ml IL-2 and incubating was continued for 4 days at 37° C. This stimulation cycle was performed for a total of three times. For the pMHC multimer readout using 8 different pMHC molecules per condition, a two-dimensional combinatorial coding approach was used as previously described (Andersen et al., 2012) with minor modifications encompassing coupling to 5 different fluorochromes. Finally, multimeric analyses were performed by staining the cells with Live/dead near IR dye (Invitrogen, Karlsruhe, Germany), CD8-FITC antibody clone SK1 (BD, Heidelberg, Germany) and fluorescent pMHC multimers. For analysis, a BD LSRII SORP cytometer equipped with appropriate lasers and filters was used. Peptide specific cells were calculated as percentage of total CD8+ cells. Evaluation of multimeric analysis was done using the FlowJo software (Tree Star, Oregon, USA). In vitro priming of specific multimer+CD8+ lymphocytes was detected by comparing to negative control stimulations.

| Substance | Peptide exchange (HLA-A*02:01) | Donors (in vitro immunogenicity) (CD8+ T cells) | Wells (in vitro immunogenicity) (CD8+ T cells) |
| --- | --- | --- | --- |
| 215 (EVISKLYAV; listed as Homo sapiens) [compound 215] | +++ (>50 = +++) |  |  |
| 216 (TLLHFLAEL; listed as Homo sapiens) [compound 216] | ++++ (>75% = ++++) |  |  |
| 217 (NMMSGISSV; listed as Homo sapiens) [compound 217] | +++ (>50 = +++) |  |  |
| 218 (STLHLVLRL; listed as Homo sapiens) [compound 218] | +++ (>50 = +++) |  |  |
| 219 (FLDSEVSEL; listed as Homo sapiens) [compound 219] | +++ (>50 = +++) |  |  |
| 220 (SAAEPTPAV; listed as Homo sapiens) [compound 220] | +++ (>50 = +++) |  |  |
| 221 (SLLPTEQPRL; listed as Homo sapiens) [compound 221] | +++ (>50 = +++) |  |  |
| 222 (LLSEIEEHL; listed as Homo sapiens) [compound 222] | ++++ (>75% = ++++) |  |  |
| 223 (FLETNVPLL; listed as Homo sapiens) [compound 223] | +++ (>50 = +++) |  |  |
| 224 (ILDEPTNHL; listed as Homo sapiens) [compound 224] | ++ (>20% = ++) |  |  |
| 225 (VLFGAVITGA; listed as Homo sapiens) [compound 225] | ++++ (>75% = ++++) |  |  |
| 226 (VLNEYFHNV; listed as Homo sapiens) [compound 226] | ++++ (>75% = ++++) |  |  |
| 227 (FLLEQEKTQAL; listed as Homo sapiens) [compound 227] | ++++ (>75% = ++++) |  |  |
| 228 (FLNLFNHTL; listed as Homo sapiens) [compound 228] | ++++ (>75% = ++++) |  |  |
| 229 (LLEPFVHQV; listed as Homo sapiens) [compound 229] | ++++ (>75% = ++++) |  |  |
| 230 (HLDEARTLL; listed as Homo sapiens) [compound 230] | ++++ (>75% = ++++) |  |  |
| 231 (KMVGDVTGA; listed as Homo sapiens) [compound 231] | +++ (>50 = +++) |  |  |
| 233 (QLYNQIIKL; listed as Homo sapiens) [compound 233] | ++++ (>75% = ++++) |  |  |
| 234 (KVPEIEVTV; listed as Homo sapiens) [compound 234] | ++++ (>75% = ++++) |  |  |
| 235 (ALADLQEAV; listed as Homo sapiens) [compound 235] | ++++ (>75% = ++++) |  |  |
| 236 (GLDSGFHSV; listed as Homo sapiens) [compound 236] | ++++ (>75% = ++++) |  |  |
| 237 (VLYNESLQL; listed as Homo sapiens) [compound 237] | ++++ (>75% = ++++) |  |  |

| Substance | Peptide exchange (HLA-A*02:01) | Donors (in vitro immunogenicity) (CD8+ T cells) | Wells (in vitro immunogenicity) (CD8+ T cells) |
| --- | --- | --- | --- |
| 238 (KLLDKPEQFL; listed as Homo sapiens) [compound 238] |  | ++ (20%-49% = ++) | + (<20% = +) |
| 241 (RLYTKLLNEA; listed as Homo sapiens) [compound 241] |  | ++++ (≥70% = ++++) | +++ (50%-69% = +++) |
| 243 (ALAGIVTNV; listed as Homo sapiens) [compound 243] |  | ++++ (≥70% = ++++) | + (<20% = +) |
| 247 (ALLNAILHSA; listed as Homo sapiens) [compound 247] |  | ++++ (≥70% = ++++) | + (<20% = +) |
| 248 (GLFAGLGGAGA; listed as Homo sapiens) [compound 248] |  | ++++ (≥70% = ++++) | + (<20% = +) |
| 250 (RVLPPSALQSV; listed as Homo sapiens) [compound 250] |  | +++ (50%-69% = +++) | + (<20% = +) |
| 252 (YLLDMPLWYL; listed as Homo sapiens) [compound 252] |  | ++++ (≥70% = ++++) | + (<20% = +) |
| 254 (FLMKNSDLYGA; listed as Homo sapiens) [compound 254] |  | ++++ (≥70% = ++++) | + (<20% = +) |
| 257 (VLLNEILEQV; listed as Homo sapiens) [compound 257] |  | ++++ (≥70% = ++++) | ++ (20%-49% = ++) |
| 262 (KLAVALLAA; listed as Homo sapiens) [compound 262] |  | ++ (20%-49% = ++) | ++ (20%-49% = ++) |
| 264 (KVFDEVIEV; listed as Homo sapiens) [compound 264] |  | + (<20% = +) | + (<20% = +) |
| 267 (LLTDNVVKL; listed as Homo sapiens) [compound 267] |  | ++++ (≥70% = ++++) | + (<20% = +) |
| 269 (ALNESLVEC; listed as Homo sapiens) [compound 269] |  | ++++ (≥70% = ++++) | + (<20% = +) |
| 271 (SLVQRVETI; listed as Homo sapiens) [compound 271] |  | ++ (20%-49% = ++) | + (<20% = +) |
| 277 (KTASINQNV; listed as Homo sapiens) [compound 277] |  | ++++ (≥70% = ++++) | +++ (50%-69% = +++) |
| 278 (SLITGQDLLSV; listed as Homo sapiens) [compound 278] |  | ++++ (≥70% = ++++) | + (<20% = +) |
| 283 (YTFSGDVQL; listed as Homo sapiens) [compound 283] |  | ++++ (≥70% = ++++) | + (<20% = +) |
| 287 (KISDFGLATV; listed as Homo sapiens) [compound 287] |  | ++++ (≥70% = ++++) | ++ (20%-49% = ++) |
| 292 (ALGDKFLLRV; listed as Homo sapiens) [compound 292] |  | ++++ (≥70% = ++++) | + (<20% = +) |
| 294 (FLLAEDTKV; listed as Homo sapiens) [compound 294] |  | ++++ (≥70% = ++++) | ++ (20%-49% = ++) |
| 298 (KLQEEIPVL; listed as Homo sapiens) [compound 298] |  | ++++ (≥70% = ++++) | + (<20% = +) |
| 308 (KLLSDPNYGV; listed as Homo sapiens) [compound 308] |  | ++++ (≥70% = ++++) | + (<20% = +) |
